Laboratory results as given in patent US20040014678A1, “Prevention of beta-amyloid neurotoxicity by blockade of the ubiquitin-proteasome proteolytoc pathway” (priority 2003, published 2004).
“Also recorded” adds a separate entry of the source. Residues, ends and D or L forms follow the SMILES beside them.

Assays:
rat cortical neurons [1] = assay: cells; assay type: cell-based
Method: FIGS. 3A and 3B show inhibition of β-amyloid (β-am) neurotoxicity by lactacystin (lacta) and Leu-Ala. Cell viability is assessed using the MTT assay. The conversion of tetrazolium salts is measured using a spectrophotometer and expressed as absorbance in arbitrary units. […] Lacta inhibits the neurotoxic effect cause by β-am in a concentration-dependent manner (•[formula]•).
(§1) Hemispheres were separated, and meninges were carefully removed.
Neurons plated at a density of 0.4×10^6 in 48-multiwell plates were exposed for the appropriate times to the test agents. MTT reduction was used to measure mitochondrial activity as an index of cell viability. The reaction was started by adding 0.4 mg/ml MTT in a PBS solution to the neurons. After 16 h of incubation at 37° C., 100 μl of pure dimethyl sulfoxide is added to each well. After an additional 12 h of incubation, absorbance values at 570 nm were determined with an automatic microplate reader, using 630 nm as a reference wavelength. Experiments were done in 48-multiwell plates allowing eight samples for each experimental point. Experiments were repeated at least three times.

[2] = tested on: ubiquitination of neuronal proteins; assay: Western blot of ubiquitinated neuronal proteins; assay type: cell-based, rat; conditions: for ubiquitinated proteins, agent alone: 72 h
Method: Lactacystin alone (lane 3), by blocking proteasome activity, causes an accumulation of ubiquitinated protein, although to a lesser extent than β-amyloid.
as §1
Western blot analysis was performed as previously described (Favit et al., 1998) with the following modifications. Proteins were extracted from neuronal pellets in a PBS solution containing 1 mg/ml leupeptin, 1 mg/ml pepstatin, 1 mg/ml chymostatin, 1 mg/ml antipain, and 0.2 mM phenylmethylsulfonyl fluoride. (Vannucci et al. (1998)). The crude homogenate was balanced with sample buffer containing 0.5 M Tris-HCl (pH 6.8), 10% glycerol, 2% sodium dodecyl sulfate, and 0.5% 2-mercaptoethanol to a final volume of 20 μl with a total protein concentration of […]. Sodium dodecyl sulfate-polyacrylamide gel electrophoresis was carried out in a 4-20% acrylamide gradient gel 1.5 mm thick. (Novex, San Diego, Calif., U.S.A.). Twenty micrograms per lane of protein of the crude homogenate was electrophoresed and transferred overnight onto a nitrocellulose membrane (Schleicher & Schuell). The membrane was blocked in 1% bovine serum albumin in 95% Tris-buffered saline for 1 h. Immunodetection of ubiquitin was obtained by exposing the membrane to an anti-ubaiqtin polyclonal primary antibody at 1:1,000 dilution for 1 h. Blots were then incubated with an anti-mouse alkaline phosphatase-conjugated secondary antibody for 1 h. Finally, the nitrocellulose was stained with a solution containing 0.1 M Tris-HCl (pH 9.6), 0.001 M MgCl2, 1% nitro blue terrazolium (Pierce), and 1% 5-bromo-4chloro-3-indolyl phosphate toluidine salt (Pierce). All reactions were carried out at room temperature. At least three independent sets of experiments were conducted.
Blocking ubiquitination with Leu-Ala or inhibiting proteasome activity with lactacystin prevent β-amyloid-induced neurotoxicity. […] Therefore, the ability of β-amyloid to cause ubiquitination of neuronal proteins was tested. Neurons were incubated with β-amyloid for 72 h in the presence of 50 nM lactacystin or 2 mM Leu-Ala and harvested. […] As a consequence of this, the target proteins are not degraded by the proteasome.

rat cortical neurons [3] = assay: Morphologic analysis of β-amyloid-induced cortical neuron damage (phase-contrast); conditions: for neuronal viability, agent alone: without β-amyloid
Method: FIGS. 1A, 1B, 1C and 1D provide morphologic analysis of β-amyloid-induced cortical neuron damage shown in representative phase-contrast images of cortical neurons at 13 days in vitro. Cells are treated for 5 days with vehicle (FIG. 1A), 50 nM lactacystin (FIG. 1B), 20 μM β-amyloid (FIG. 1C), or 20 μM β-amyloid+50 nM lactacystin (FIG. 1D).
(§2) Neurons were prepared from 17-day-old rat fetuses, according to a previously published protocol (Hampson et al. (1998)). In brief, the fetuses were decapitated, the brains were dissected and placed in phosphate-buffered saline (PBS) containing 4.5 g/L glucose. Hemispheres were separated, and meninges were carefully removed. Cortical tissues were freed from subcortical structures and cut into small fragments. Tissues were incubated with papain activated with cysteine for 10 min at 37° C. Papain was neutralized with a solution of ovomucoid and bovine serum albumin. Finally, tissues were mechanically dissociated until a single-cell suspension was obtained. Cells were plated in poly-D-lysine-coated 3.5-cm-diameter Petri dishes, 48-multiwell plates, or tissue culture flasks.

rat cortical neurons [4] = tested on: rat cortical neurons
Method: Cells are treated with the agents indicated in the respective heading (e.g. LACTA for lactacystin) and then stained with fluorescein and propidium. […] Data are mean±SE (bars) values.
as §2
Viability of cortical neurons was assessed with a propidium iodide exclusion test and fluorescein diacetate incorporation assessment, according to a previously published protocol. (Favit et al. (1992)). Rat cortical neurons seeded on 3.5-cm-diameter dishes were treated, washed with PBS, and incubated with a PBS solution containing 36 μM fluroescein diacetate and 7 μM propidium iodide for 3 min at room temperature. Cell viability was assessed by counting 100 cells per microscope field (using a 20× lens) for the number of fluorescein-labeled neurons versus propidium-positive cells. Experiments were conducted in duplicate and repeated at least three times. Statistical validity was assessed by ANOVA followed by a post hoc test.

Molecule: CC(C)C[C@H](NC(=O)[C@H](C)N)C(=O)O [Ala-Leu] (H-Ala-Leu-OH)
- reduction of β-amyloid toxicity (rat cortical neurons [1]; reverse dipeptide, data not shown): does not cause any reduction of β-amyloid toxicity

Molecule: CC(C)C[C@H](N)C(=O)N[C@@H](C)C(=O)O [Leu-Ala, leucine-alanine dipeptide] (H-Leu-Ala-OH)
- ubiquitinated proteins, agent alone [2]: does not affect protein ubiquitination in control cells
- β-amyloid-induced ubiquitination ([2]; β-amyloid 72 h with 2 mM Leu-Ala): markedly reduced; also recorded: completely prevented
- neuronal viability, agent alone (rat cortical neurons [3]): did not affect neuronal viability
- cell damage caused by β-am (rat cortical neurons [1]; 2 mM Leu-Ala with β-am): clear reduction of the cell damage caused by β-am

Molecule: CC(=O)N[C@@H](CSC(=O)[C@]1([C@@H](O)C(C)C)NC(=O)[C@H](C)[C@@H]1O)C(=O)O [lactacystin]
- ubiquitinated proteins, agent alone [2]: increases the presence of ubiquitinated protein
- β-amyloid-induced ubiquitination ([2]; β-amyloid 72 h with 50 nM lactacystin): not affected
- β-amyloid-induced propidium staining (rat cortical neurons [4]; β-amyloid combined with 50 nM lactacystin): reversed to near control levels
- β-amyloid-induced morphologic degeneration of neurons (rat cortical neurons [3]; 50 nM lactacystin with 20 μM β-amyloid, 5 days): prevented β-amyloid-induced morphologic degeneration of neurons
- neuronal viability, agent alone (rat cortical neurons [3]): did not affect neuronal viability
- cell damage caused by β-am (rat cortical neurons [1]; 50 nM lacta with β-am): clear reduction of the cell damage caused by β-am
- EC50 (rat cortical neurons [1]; Rattus norvegicus, Cortical neurone, in presence of β-amyloid, read-out: apparent EC50 for blocking β-amyloid toxicity): 30 nM
- prevention of toxic effect of β-amyloid at the highest concentration tested (rat cortical neurons [1]; highest concentration tested): almost entirely prevents the toxic effect of β-amyloid
- concentration at which the protective effect is already statistically significant (rat cortical neurons [1]; in presence of β-amyloid): 25 nM
- concentration at which the protective effect reaches an apparent plateau (rat cortical neurons [1]; in presence of β-amyloid): 500 nM

Molecule: β-Amyloid 1-40 [β-amyloid fragment 1-40]
- ubiquitinated proteins, agent alone [2]: marked increase of ubiquitination of multiple proteins
- fluorescein sequestration (rat cortical neurons [4]): not able to sequester fluorescein
- number of viable cells (cell counts) (rat cortical neurons [4]): significantly reduces the number of viable cells
- propidium iodide staining (rat cortical neurons [4]): clear staining with propidium iodide
- viable cells (MTT) (rat cortical neurons [1]): greatly decreases viable cells
